Where two headings read alike, the source gives them in different places. Marks after values point to notes of the source that are not given here.
What was measured:
LN18 GBM cell line = assay: antiproliferative activity, MTT assay, LN18; type: cell-based; conditions: Homo sapiens, LN-18, 72 h treatment
Description: (§1) Cell-based assays were performed using four GBM cell lines, i.e., U-87, LN18, LN229, and DBTRG, cultured in Dulbecco’s modified Eagle medium (DMEM) (U-87, LN18, and LN229) or Roswell Park Memorial Institute medium (RPMI 1640) (DBTRG). Both media were implemented with 10% fetal bovine serum (FBS), 2 mM L-glutamine, and 10,000 units/mL penicillin/streptomycin at 37 °C in a 5% CO2 atmosphere. […] The final concentration of DMSO used never exceeded 0.5% v/v, and appropriate controls were always performed in each assay. […] These were cultured in DMEM supplemented with 10% FBS, 2 mM L-glutamine, and 10,000 units/mL penicillin/streptomycin at 37 °C in a 5% CO2 atmosphere. The protocol used to assess the cytotoxic effect on both healthy cell lines was the same described above for the antiproliferative assay. For both the antiproliferative and the cytotoxic assays, 3-(4,5-dimethylthiazol-2-yl)-2,5-diphenyltetrazolium bromide (MTT) was used to assess cell viability as previously described. Briefly, 150 μL of MTT (5 mg/mL in FBS-free culture medium) was added to each well, and the plates incubated for 4 h in a 5% CO2 atmosphere at 37 °C. Afterward, formazan violet crystals were solubilized in 150 μL of isopropanol, and the absorbance was quantified at 570 nm using a Multiskan SkyHigh Microplate Spectrophotometer (ThermoFisher, Waltham, MA, USA). Cell viability was expressed as a percentage of DMSO-treated cells (controls), taken as 100%. […] To support MTT data, cytotoxicity assays was always paralleled by a careful observation of cells under a phase-contrast light microscope, as described in USP 28 (United States Pharmacopeia edition 2005) as an alternative method. This analysis was performed by an expert operator blind to the treatment, and exemplificative photos representing the effects of compound 5 on LN229 and DBTRG cells are reported in Figures S2 and S3 (Supplementary Materials).

LN229 GBM cell line = assay: antiproliferative activity, MTT assay, LN229; type: cell-based; conditions: Homo sapiens, LN-229, 72 h treatment
Description: as §1

DBTRG GBM cell line = assay: antiproliferative activity, MTT assay, DBTRG; type: cell-based; conditions: Homo sapiens, 72 h treatment
Description: as §1

[1] = cytotoxicity on nontumoral healthy cells, MTT assay, FIBRO 2-93; type: cell-based, human; conditions: human, FIBRO 2-93 healthy fibroblasts, 72 h treatment, MTT
Description: (§4) The protocol used to assess the cytotoxic effect on both healthy cell lines was the same described above for the antiproliferative assay. For both the antiproliferative and the cytotoxic assays, 3-(4,5-dimethylthiazol-2-yl)-2,5-diphenyltetrazolium bromide (MTT) was used to assess cell viability as previously described [20]. […] Afterward, formazan violet crystals were solubilized in 150 μL of isopropanol, and the absorbance was quantified at 570 nm using a Multiskan SkyHigh Microplate Spectrophotometer (ThermoFisher, Waltham, MA, USA). Cell viability was expressed as a percentage of DMSO-treated cells (controls), taken as 100%.

fibroblasts FIBRO 2-93 = assay: as above; type: cell-based, human; conditions: for CC50: 72 h treatment, MTT; for CC50 times higher than IC50: CC50 on FIBRO 2-93 and HaCaT vs IC50 on GBM cells
Description: as §4

[2] = cytotoxicity on nontumoral healthy cells, MTT assay, HaCaT; type: cell-based, human; conditions: human, HaCaT keratinocytes, 72 h treatment
Description: as §4

keratinocytes HaCaT = assay: as above; type: cell-based, human; conditions: 72 h treatment
Description: as §4

U-87 GBM cell line [3] = conditions: previously published; cited from earlier work
[4] = HLM, previously published, cited from earlier work; for Metabolite Formation M1: M1 = M − HCl + O; for Metabolite Formation M3: M3 = M—group bearing NH moiety in R2
U-87 GBM cell line [5] = assay: antiproliferative activity, MTT assay, U-87; type: cell-based; conditions: Homo sapiens, 72 h treatment
Description: as §1

PAMPA, GI permeability = type: in vitro ADME; conditions: RT; for GI membrane retention (MR%): 5 h, pH 7.4; for Papp at 5 h, 500 µM: pH 7.4, PAMPA
Description: (§2) UV/LC–MS chromatographic analyses were carried out using an Agilent 1100 LC/MSD VL system (G1946C) purchased from Agilent Technologies (Palo Alto, CA, USA). […] The analysis began with 5% B (t = 0–1 min), increased to 95% (t = 1–10 min), maintained at 95% (t = 10–19 min), and finally returned to 5% […]. The analyses were performed at a flow rate of 0.6 mL/min, UV detection was monitored at 254 nm, and spectra were acquired over the scan range of m/z 100–1000 in both positive and negative modes.
(§3) The DMSO stock of each compound was diluted with phosphate buffer (PBS 25 mM, pH 7.4) to a final concentration of 500 µM in order to obtain the “donor”. For GI and BBB permeability, filters were coated with 10 µL of 1% w/v dodecane phosphatidylcholine solution or 5 µL of 10% w/v CHCl3/dodecane brain polar lipid solution. The donor (150 µL) was poured over the artificial membranes on the filter plate. DMSO/PBS (300 µL, 1:1 v/v) was then added to the acceptor wells. After assembling the sandwich plates, the experiments were run for 5 h at room temperature (RT). Lastly, the amount of compound passed though the artificial membranes was determined using the UV/LC–MS method described above. Apparent permeability (Papp) and membrane retention (MR%) were determined as previously described.

PAMPA, BBB permeability = type: in vitro ADME; conditions: RT; for BBB membrane retention (MR%): 5 h, pH 7.4; for Papp at 5 h, 500 µM: pH 7.4, PAMPA
Description: as §2, §3

[6] = metabolic stability assay in human liver microsomes; type: in vitro ADME; conditions: HLM 0.2 mg/mL, NADPH, 1 h, 37 °C
Description: as §2
Each DMSO compound solution was incubated for 1 h at 37 °C in the presence of 500 µL of PBS (25 mM, pH 7.4), human liver microsomal (HLM) proteins (0.2 mg/mL), and 10 mM NADPH solution in MgCl2 (48 mM). The reactions were stopped with 1.0 mL of cold ACN. The samples were centrifuged (4000 rpm for 10 min), and the supernatants were collected, dried under N2 flow, and suspended in 100 µL of methanol (MeOH). Parent drugs and metabolites were determined using the previously described HPLC/UV–MS method. The percentage metabolic stability was calculated by comparing the metabolized and unmetabolized compounds.

c-Src = biological target: T1, c-Src (Homo sapiens, UniProt P12931); assay: cell-free enzymatic assay (ADP-Glo), c-Src; type: biochemical
T1 construct: purchased Promega (Madison, WI, USA)
T1 sequence (P12931 whole entry): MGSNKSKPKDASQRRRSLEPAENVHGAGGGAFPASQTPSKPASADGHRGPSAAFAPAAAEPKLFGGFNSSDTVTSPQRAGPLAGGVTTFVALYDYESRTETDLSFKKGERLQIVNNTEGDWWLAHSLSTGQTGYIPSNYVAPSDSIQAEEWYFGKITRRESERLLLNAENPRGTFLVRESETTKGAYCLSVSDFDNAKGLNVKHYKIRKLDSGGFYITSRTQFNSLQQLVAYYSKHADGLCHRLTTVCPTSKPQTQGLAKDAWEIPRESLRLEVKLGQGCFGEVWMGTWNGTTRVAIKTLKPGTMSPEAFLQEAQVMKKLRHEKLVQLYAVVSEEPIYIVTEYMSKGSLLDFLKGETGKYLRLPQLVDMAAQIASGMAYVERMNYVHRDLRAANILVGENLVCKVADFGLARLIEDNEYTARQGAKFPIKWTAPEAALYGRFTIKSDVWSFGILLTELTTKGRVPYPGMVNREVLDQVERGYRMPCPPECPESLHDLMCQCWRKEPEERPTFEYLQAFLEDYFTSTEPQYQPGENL
Description: (§5) The reactions were carried out in accordance with the manufacturer’s instructions, with minor modifications. The experiments were run using all substrates at least twice the concentration of apparent Km. […] All reactions were run out at 30 °C for 10 min with 10–50 ng of enzyme and 10 µL of 10% DMSO. Protein low-binding tubes were used to prevent peptide adsorption onto the plastic surface. To detect kinase activity, the ADP-Glo Kinase Assay (Promega, Madison, WI, USA) was used according to the manufacturer’s protocol. Into white 384-well plates, reactions were stopped for 50 min at RT by adding 10 µL of ADP-Glo Reagent (Promega, Madison, WI, USA). After 30 min, 20 µL of Detection Reagent (Promega, Madison, WI, USA) was added, and the reaction was read using a GloMax Discover microplate reader (Promega, Madison, WI, USA). […] Compounds analyzed were considered to act as ATP-competitive inhibitors.

LN229 cells [7] = assay: reversible/irreversible effect on LN229 cell death (MTT); type: cell-based, human; conditions: for further decrease in cell viability: 24 h treatment followed by 48 h without compound, vs 24 h
LN229 cells [8] = assay: cell-cycle analysis by flow cytometry, LN229; type: cell-based, human; conditions: LN229, 72 h at IC50 (6.9 µM)
DBTRG cells = assay: cell-cycle analysis by flow cytometry, DBTRG; type: cell-based, human; conditions: 72 h at IC50 (8.5 µM)
LN229 cells [9] = assay: T-scratch assay (cell migration); type: cell-based, human; conditions: for wound closure: after 72 h; for wound left opened: all timepoints (24–48–72 h)
Description: The scratched area was observed and photographed at 10× magnification after 0–24–48–72 h (see Figure S5, Supplementary Materials).

[10] = design: method as in PMID 21443205; conditions: previously published; cited from earlier work
Abl = biological target: T2, Abl (Homo sapiens, UniProt P00519); assay: cell-free enzymatic assay (ADP-Glo), Abl; type: biochemical; conditions: 30 µM ATP, 50 µM Abltide
T2 construct: purchased Promega (Madison, WI, USA)
T2 sequence (P00519 whole entry): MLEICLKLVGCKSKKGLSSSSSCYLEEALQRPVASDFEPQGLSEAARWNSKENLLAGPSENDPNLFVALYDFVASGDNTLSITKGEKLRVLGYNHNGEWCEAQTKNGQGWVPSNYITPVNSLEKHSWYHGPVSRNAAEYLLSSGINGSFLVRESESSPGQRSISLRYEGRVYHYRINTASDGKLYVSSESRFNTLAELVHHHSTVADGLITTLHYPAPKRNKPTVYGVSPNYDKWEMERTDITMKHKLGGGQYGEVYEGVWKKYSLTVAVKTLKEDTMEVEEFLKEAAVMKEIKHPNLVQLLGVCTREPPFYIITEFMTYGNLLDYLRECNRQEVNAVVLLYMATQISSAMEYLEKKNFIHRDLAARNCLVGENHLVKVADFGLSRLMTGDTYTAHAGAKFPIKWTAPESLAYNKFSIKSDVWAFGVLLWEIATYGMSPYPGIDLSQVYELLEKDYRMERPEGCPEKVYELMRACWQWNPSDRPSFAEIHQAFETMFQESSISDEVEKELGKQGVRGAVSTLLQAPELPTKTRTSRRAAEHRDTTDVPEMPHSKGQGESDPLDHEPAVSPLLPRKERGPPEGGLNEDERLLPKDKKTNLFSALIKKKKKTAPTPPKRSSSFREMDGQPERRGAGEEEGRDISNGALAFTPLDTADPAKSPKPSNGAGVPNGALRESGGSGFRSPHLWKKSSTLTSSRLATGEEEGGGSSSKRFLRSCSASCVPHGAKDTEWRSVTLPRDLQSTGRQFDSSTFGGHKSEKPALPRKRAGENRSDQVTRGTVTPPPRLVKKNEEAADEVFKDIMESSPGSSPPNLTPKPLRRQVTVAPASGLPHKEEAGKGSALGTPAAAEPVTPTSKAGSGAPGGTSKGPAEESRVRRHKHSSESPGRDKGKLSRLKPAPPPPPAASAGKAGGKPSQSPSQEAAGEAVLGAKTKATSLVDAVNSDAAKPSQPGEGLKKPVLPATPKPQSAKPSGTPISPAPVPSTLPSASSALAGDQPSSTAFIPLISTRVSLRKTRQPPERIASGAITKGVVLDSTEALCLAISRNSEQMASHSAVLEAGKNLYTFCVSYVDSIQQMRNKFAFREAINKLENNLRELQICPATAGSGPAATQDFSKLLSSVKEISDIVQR
Description: as §5

[11] = 100 µM ATP, 500 µM Src-peptide, read-out: c-Src Ki

| Compound | IC50 (LN18 GBM cell line) [µM] | IC50 (LN229 GBM cell line) [µM] | IC50 (DBTRG GBM cell line) [µM] | IC50 (U-87 GBM cell line [5]) [µM] | GI membrane retention (MR%) (PAMPA, GI permeability) [%] | Papp at 5 h, 500 µM (PAMPA, GI permeability) [×10⁻⁶ cm/s] | BBB membrane retention (MR%) (PAMPA, BBB permeability) [%] | Papp at 5 h, 500 µM (PAMPA, BBB permeability) [×10⁻⁶ cm/s] | melting point [°C] | Metabolic Stability [6] [%] | other results |
| --- | --- | --- | --- | --- | --- | --- | --- | --- | --- | --- | --- |
| ClC(Cn1ncc2c(NCc3ccccc3)ncnc21)c1ccccc1 (centres unmarked) [Compound 1] | 3.6 ± 0.5 | 3.4 ± 0.8 | 4.3 ± 0.8 |  |  |  |  |  |  |  | CC50 at 72 h [1]: ~87 µM; CC50 (fibroblasts FIBRO 2-93): 86.9 ± 4.2 µM; CC50 times higher than IC50 (fibroblasts FIBRO 2-93): 10 times; CC50 at 72 h [2]: ~87 µM; CC50 (keratinocytes HaCaT): 88.7 ± 5.7 µM; IC50 (U-87 GBM cell line [3]): 2.9 ± 1.1 µM; Metabolite Formation M1 [4]: 14.5%; Metabolite Formation M2 ([4]; M2 = M + OH): < 0.1%; Metabolite Formation M3 [4]: 2.6%; Metabolite Formation M4 ([4]; M4 = M − Cl + OH (−35 + 17)): 4.5%; Metabolic Stability [4]: lower than 80% |
| ClC(Cn1ncc2c(NC3CC3)ncnc21)c1ccccc1 (centres unmarked) [Compound 2] | 49.4 ± 2.8 | > 100 | > 100 | > 100 | 34.7 | 6.46 | 55.0 | 4.96 | 194 to 195 |  |  |
| Fc1ccccc1CNc1ncnc2c1cnn2CC(Cl)c1ccccc1 (centres unmarked) [Compound 3] | 27.5 ± 2.1 | 29.2 ± 2.6 | 15.1 ± 2.1 | 40.2 ± 3.6 | 7.3 | ≥ 10 | 4.8 | ≥ 10 |  | 80.4 |  |
| Fc1ccc(CNc2ncnc3c2cnn3CC(Cl)c2ccccc2)cc1 (centres unmarked) [Compound 4] | 9 ± 1.2 | > 100 | 68.5 ± 3.8 | 29.8 ± 2.5 | 7.8 | ≥ 10 | 2.1 | ≥ 10 | 161 to 162 |  |  |
| Fc1ccc(C(Cl)Cn2ncc3c(NCc4ccccc4)ncnc32)cc1 (centres unmarked) [Compound 5] | 10.8 ± 1.4 | 6.9 ± 0.5 | 8.5 ± 1.4 | 6.8 ± 0.3 | 9.2 | ≥ 10 | 5.6 | ≥ 10 | 143 to 144 | 84.2 | Ki (c-Src; [11]): 3.14 ± 0.38 µM; CC50 at 72 h [1]: > 90 µM; CC50 (fibroblasts FIBRO 2-93): 91.7 ± 5.3 µM; CC50 times higher than IC50 (fibroblasts FIBRO 2-93): 10 times; CC50 at 72 h [2]: > 90 µM; CC50 (keratinocytes HaCaT): 126 ± 6.4 µM; further decrease in cell viability (LN229 cells [7]; 10 µM): ~ −30%; further decrease in cell viability (LN229 cells [7]; 100 µM): ~ −30%; reversibility of cytotoxic effect (LN229 cells [7]; 24 h treatment, 48 h drug-free medium): irreversible cytotoxic effect; change in cells in G0/G1 phase vs control (LN229 cells [8]): −32.4%; change in cells in sub G0/G1 phase vs control (LN229 cells [8]): +32.1%; percentage of cells in the S and G2/M phases vs control (LN229 cells [8]): No significant differences; change in cells in G2/M phase vs control (DBTRG cells): +38.1%; change in cells in sub G0/G1 area vs control (DBTRG cells): +15.6%; wound closure (LN229 cells [9]; 0.25 µM): ~60%; wound closure (LN229 cells [9]; 0.5 µM): ~60%; wound left opened (LN229 cells [9]; 2.5 µM): more than 80%; wound left opened (LN229 cells [9]; 5 µM): more than 80% |
| Fc1ccc(C(Cl)Cn2ncc3c(NCc4ccccc4F)ncnc32)cc1 (centres unmarked) [Compound 6] | 11.7 ± 1.5 | 33.8 ± 2.3 | 20.1 ± 1.8 | 32.4 ± 2.7 | 10.1 | ≥ 10 | 4.4 | ≥ 10 |  | 69.9 | Ki (c-Src; [11]): 0.07 ± 0.01 µM |
| Fc1ccc(CNc2ncnc3c2cnn3CC(Cl)c2ccc(Cl)cc2)cc1 (centres unmarked) [Compound 7] | 3.9 ± 0.6 | 7.1 ± 1.1 | 14.6 ± 0.9 | 22.7 ± 2.3 |  |  | 4.4 | ≥ 10 |  |  | Ki (c-Src; [11]): 0.8 ± 0.09 µM; CC50 at 72 h [1]: 28.6 ± 3.7 µM; CC50 at 72 h [2]: 37.8 ± 4.9 µM; Metabolite Formation M1 [4]: 4%; Metabolite Formation M3 [4]: 2% |
| CSc1nc(NCCc2ccccc2)c2cnn(CC(Cl)c3ccccc3)c2n1 (centres unmarked) [Compound 8] | 5.9 ± 1.1 | 26.1 ± 2.8 | 31.2 ± 2.5 | 37.9 ± 3.9 | 42.7 | 3.2 | 18.3 | 5.96 |  |  |  |
| ClC(Cn1ncc2c(NCc3ccccc3)nc(SCCN3CCOCC3)nc21)c1ccccc1 (centres unmarked) [Compound 9] | 2.9 ± 0.5 | 58.2 ± 3.4 | 59.4 ± 3.7 | > 100 |  |  | 6.3 | 2.6 |  |  | QP LogS [10]: −5.6 *; Metabolite Formation M1 [4]: M1 = 5 * % |
| Clc1ccc(C(Cl)Cn2ncc3c(NCCc4ccccc4)ncnc32)cc1 (centres unmarked) [Compound 10] | 6.2 ± 1 | 27.9 ± 2.1 | 46.5 ± 4.1 | 33.9 ± 2.9 | 17.2 | ≥ 10 | 4.8 | ≥ 10 |  | 85.9 | Ki (c-Src): 0.22 ± 0.03 µM; Ki (Abl): 0.31 ± 0.02 µM |
| Fc1cccc(CNc2ncnc3c2cnn3CCc2ccccc2)c1 [Compound 11] | 34.1 ± 2.9 | 58.4 ± 3 | 69.2 ± 3.9 | 56.9 ± 3.3 | 6.7 | ≥ 10 | 5.2 | ≥ 10 | 113 to 114 |  |  |
| ClC(Cn1ncc2c(Nc3ccccc3)ncnc21)c1ccc(Br)cc1 (centres unmarked) [Compound 12] | > 100 | > 100 | > 100 |  |  |  |  |  |  |  | IC50 (U-87 GBM cell line [3]): 14 ± 1.9 µM; Metabolic Stability [4]: ≥ 90% |
